The values below come from patent publication US9777003B2, “Tricyclic heterocycles as bet protein inhibitors” (Incyte Corporation, priority 2013, dated 2017).

A value given as a limit tells only on which side of the number the result lay.

One assay addresses BRD4-BD1 (Homo sapiens (Human), UniProt O60885). The assay can be described thus: BRD4 AlphaScreen assay, BRD4-BD1. The settings on record: biotin-labeled tetra-acetylated histone H4 peptide, 75 min, room temperature, read-out: BRD4 BD-1 enzyme IC50. Type of assay: binding. The method, boiled down:
(§1)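 IC50 values from percent-control versus log inhibitor fits after bead-based proximity readout (streptavidin donor, GSH acceptor, 75 min dark). Reactions: 75 min RT, pH 7.4 HEPES, biotin-H4Ac4 peptide 50 nM, with BD1 at 3.8 nM (DMSO 1.25%) and BD2 at 20 nM (DMSO 0.83%).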

A further assay deals with BRD4-BD2 (Homo sapiens (Human), UniProt O60885). The assay can be described thus: BRD4 AlphaScreen assay, BRD4-BD2. Type of assay: binding. The settings on record: biotin-labeled tetra-acetylated histone H4 peptide, 75 min, room temperature, read-out: BRD4 BD-2 enzyme IC50. Summed up: as §1
(Bead proximity is the source of the signal in Alpha formats.)

A word on the IC50: it is the midpoint of a concentration-inhibition curve. As for `Cc1cc2c(cc(NC(N)=O)c3nnc(C)n32)n1Cc1cccc(F)c1` [Example 235, 1-(6-(3-Fluorobenzyl)-1,7-dimethyl-6H-pyrrolo[2,3-e][1,2,4]triazolo[4,3-a]pyridin-4-yl)urea], the IC50 at BRD4-BD1 and at BRD4-BD2 was at most 100 nM each time.

For the compound `Cc1cc2c(cc(NC(N)=O)c3nnc(C)n32)n1Cc1ccc(F)cc1F` [Example 236, 1-(6-(2,4-Difluorobenzyl)-1,7-dimethyl-6H-pyrrolo[2,3-e][1,2,4]triazolo[4,3-a]pyridin-4-yl)urea], the 50% inhibitory concentration (IC50) at BRD4-BD1 and on BRD4-BD2 was at most 100 nM in each case.

On to `Cc1cc2c(cc(NC(N)=O)c3nnc(C)n32)n1Cc1cccc(F)c1F` [Example 237, 1-(6-(2,3-Difluorobenzyl)-1,7-dimethyl-6H-pyrrolo[2,3-e][1,2,4]triazolo[4,3-a]pyridin-4-yl)urea], for which the IC50 at BRD4-BD1 and at BRD4-BD2 was at most 100 nM each time.

`Cc1cc2c(cc(NC(N)=O)c3nnc(C)n32)n1Cc1ccccc1F` [Example 238, 1-(6-(2-Fluorobenzyl)-1,7-dimethyl-6H-pyrrolo[2,3-e][1,2,4]triazolo[4,3-a]pyridin-4-yl)urea]: the IC50 on BRD4-BD1 and on BRD4-BD2 was at most 100 nM in each case.

Take `Cc1cc2c(cc(NC(N)=O)c3nnc(C)n32)n1Cc1ccc(F)cc1` [Example 239, 1-(6-(4-Fluorobenzyl)-1,7-dimethyl-6H-pyrrolo[2,3-e][1,2,4]triazolo[4,3-a]pyridin-4-yl)urea]: the 50% inhibitory concentration (IC50) at BRD4-BD1 and on BRD4-BD2 was at most 100 nM throughout.

Turning to `Cc1cc2c(cc(Nc3ccccn3)c3nnc(C)n32)n1Cc1ccccc1` [Example 240, 6-benzyl-1,7-Dimethyl-N-(pyridin-2-yl)-6H-pyrrolo[2,3-e][1,2,4]triazolo[4,3-a]pyridin-4-amine], the IC50 on BRD4-BD1 and at BRD4-BD2 was at most 100 nM throughout.

For the compound `Cc1cc2c(cc(NCC3CCC3)c3nnc(C)n32)n1Cc1ccccc1` [Example 241, 6-Benzyl-N-(cyclobutylmethyl)-1,7-dimethyl-6H-pyrrolo[2,3-e][1,2,4]triazolo[4,3-a]pyridin-4-amine], the IC50 at BRD4-BD1 was 100 to 1000 nM; on BRD4-BD2, at most 100 nM.

For `Cc1cc2c(cc(NCC3CCN(C(=O)OC(C)(C)C)CC3)c3nnc(C)n32)n1Cc1ccccc1` [Example 242, tert-Butyl 4-((6-benzyl-1,7-dimethyl-6H-pyrrolo[2,3-e][1,2,4]triazolo[4,3-a]pyridin-4-ylamino)methyl)piperidine-1-carboxylate], the IC50 at BRD4-BD1 was 100 to 1000 nM; on BRD4-BD2, at most 100 nM.

Consider `Cc1cc2c(cc(NCC3CN(C(=O)OC(C)(C)C)C3)c3nnc(C)n32)n1Cc1ccccc1` [Example 243, tert-Butyl 3-((6-benzyl-1,7-dimethyl-6H-pyrrolo[2,3-e][1,2,4]triazolo[4,3-a]pyridin-4-ylamino)methyl)azetidine-1-carboxylate], for which the IC50 on BRD4-BD1 is 100 to 1000 nM; on BRD4-BD2, at most 100 nM.

Take `Cc1cc2c(cc(NC3CN(C(=O)OC(C)(C)C)C3)c3nnc(C)n32)n1Cc1ccccc1` [Example 244, tert-Butyl 3-(6-benzyl-1,7-dimethyl-6H-pyrrolo[2,3-e][1,2,4]triazolo[4,3-a]pyridin-4-ylamino)azetidine-1-carboxylate]: the IC50 at BRD4-BD1 and on BRD4-BD2 was at most 100 nM throughout.

On to `Cc1cc2c(cc(NCCCN(C)C)c3nnc(C)n32)n1Cc1ccccc1` [Example 245, N1-(6-Benzyl-1,7-dimethyl-6H-pyrrolo[2,3-e][1,2,4]triazolo[4,3-a]pyridin-4-yl)-N3,N3-dimethylpropane-1,3-diamine], for which the concentration for half-maximal inhibition (IC50) on BRD4-BD1 and at BRD4-BD2 was at most 100 nM each time.

`Cc1cc2c(cc(NCCN(C)C)c3nnc(C)n32)n1Cc1ccccc1` [Example 246, N1-(6-Benzyl-1,7-dimethyl-6H-pyrrolo[2,3-e][1,2,4]triazolo[4,3-a]pyridin-4-yl)-N2,N2-dimethylethane-1,2-diamine]: the IC50 on BRD4-BD1 and on BRD4-BD2 was at most 100 nM in each case.

For the compound `Cc1cc2c(cc(N[C@H]3C[C@H](O)C3)c3nnc(C)n32)n1Cc1ccccc1` [Example 247, trans-3-(6-Benzyl-1,7-dimethyl-6H-pyrrolo[2,3-e][1,2,4]triazolo[4,3-a]pyridin-4-ylamino)cyclobutanol], the 50% inhibitory concentration (IC50) on BRD4-BD1 and at BRD4-BD2 was at most 100 nM in each case.

Take `Cc1cc2c(cc(NC(=O)OC(C)(C)C)c3nnc(C)n32)n1Cc1ccccc1` [Example 248, tert-Butyl 6-benzy1-1,7-dimethyl-6H-pyrrolo[2,3-e][1,2,4]triazolo[4,3-a]pyridin-4-ylcarbamate]: the IC50 at BRD4-BD1 was 100 to 1000 nM; at BRD4-BD2, at most 100 nM.

`CCNC(=O)Nc1cc2c(cc(C)n2Cc2ccccc2)n2c(C)nnc12` [Example 249, 1-(6-Benzyl-1,7-dimethyl-6H-pyrrolo[2,3-e][1,2,4]triazolo[4,3-a]pyridin-4-yl)-3-ethylurea]: the IC50 at BRD4-BD1 and at BRD4-BD2 was at most 100 nM in each case.

As to `Cc1cc2c(cc(NC(=O)NC(C)C)c3nnc(C)n32)n1Cc1ccccc1` [Example 250, 1-(6-Benzyl-1,7-dimethyl-6H-pyrrolo[2,3-e][1,2,4]triazolo[4,3-a]pyridin-4-yl)-3-isopropylurea], the IC50 at BRD4-BD1 and at BRD4-BD2 was at most 100 nM throughout.

Turning to `Cc1cc2c(cc(NC(=O)N(C)C)c3nnc(C)n32)n1Cc1ccccc1` [Example 251, 3-(6-Benzyl-1,7-dimethyl-6H-pyrrolo[2,3-e][1,2,4]triazolo[4,3-a]pyridin-4-yl)-1,1-dimethylurea], the results for the IC50 on BRD4-BD1 and on BRD4-BD2 were 100 to 1000 nM and at most 100 nM, respectively.

In the case of `Cc1cc2c(cc(NC(N)=O)c3nnc(C)n32)n1Cc1ccccc1` [Example 252, 1-(6-Benzyl-1,7-dimethyl-6H-pyrrolo[2,3-e][1,24]triazolo[4,3-a]pyridin-4-yl)urea], the IC50 on BRD4-BD1 and on BRD4-BD2 was at most 100 nM throughout.

Take `Cc1cc2c(cc(Nc3ncc[nH]3)c3nnc(C)n32)n1Cc1ccccc1` [Example 253, 6-Benzyl-N-(1H-imidazol-2-yl)-1,7-dimethyl-6H-pyrrolo[2,3-e][1,2,4]triazolo[4,3-a]pyridin-4-amine]: the half-inhibitory concentration (IC50) on BRD4-BD1 and on BRD4-BD2 was at most 100 nM throughout.

Regarding `Cc1cc2c(cc(NC(N)=O)c3nnc(C)n32)n1Cc1c(F)cccc1F` [Example 254, 1-(6-(2,6-Difluorobenzyl)-1,7-dimethyl-6H-pyrrolo[2,3-e][1,2,4]triazolo[4,3-a]pyridin-4-yl)urea], the half-inhibitory concentration (IC50) at BRD4-BD1 and on BRD4-BD2 was at most 100 nM in each case.

On to `Cc1cc2c(cc(Nc3ccncc3)c3nnc(C)n32)n1Cc1ccccc1` [Example 255, 6-Benzyl-1,7-dimethyl-N-(pyridin-4-yl)-6H-pyrrolo[2,3-e][1,2,4]triazolo[4,3-a]pyridin-4-amine], for which the values for the IC50 on BRD4-BD1 and at BRD4-BD2 were 100 to 1000 nM and at most 100 nM, respectively.

`Cc1cc2c(cc(Nc3cccnc3)c3nnc(C)n32)n1Cc1ccccc1` [Example 256, 6-Benzyl-1,7-dimethyl-N-(pyridin-3-yl)-6H-pyrrolo[2,3-e][1,2,4]triazolo[4,3-a]pyridin-4-amine]: the half-inhibitory concentration (IC50) on BRD4-BD1 and on BRD4-BD2 was at most 100 nM throughout.

Regarding `Cc1cc2c(cc(NCCCN)c3nnc(C)n32)n1Cc1ccccc1` [Example 257, N1-(6-Benzyl-1,7-dimethyl-6H-pyrrolo[2,3-e][1,2,4]triazolo[4,3-a]pyridin-4-yl)propane-1,3-diamine], the IC50 at BRD4-BD1 and at BRD4-BD2 was at most 100 nM each time.

For the compound `Cc1cc2c(cc(NCCN)c3nnc(C)n32)n1Cc1ccccc1` [Example 258, N1-(6-benzyl-1,7-dimethyl-6H-pyrrolo[2,3-e][1,2,4]triazolo[4,3-a]pyridin-4-yl)ethane-1,2-diamine], the IC50 at BRD4-BD1 and on BRD4-BD2 was at most 100 nM each time.

`CCNc1cc2c(cc(C)n2Cc2ccccc2)n2c(C)nnc12` [Example 259, 6-Benzyl-N-ethyl-1,7-dimethyl-6H-pyrrolo[2,3-e][1,2,4]triazolo[4,3-a]pyridin-4-amine]: the IC50 at BRD4-BD1 and at BRD4-BD2 was at most 100 nM each time.

With `Cc1cc2c(cc(Nc3ccccc3)c3nnc(C)n32)n1Cc1ccccc1` [Example 260, 6-Benzyl-1,7-dimethyl-N-phenyl-6H-pyrrolo[2,3-e][1,2,4]triazolo[4,3-a]pyridin-4-amine], the IC50 on BRD4-BD1 and at BRD4-BD2 was at most 100 nM each time.

On to `CNc1cc2c(cc(C)n2Cc2ccccc2)n2c(C)nnc12` [Example 261, 6-Benzyl-N,1,7-trimethyl-6H-pyrrolo[2,3-e][1,2,4]triazolo[4,3-a]pyridin-4-amine], for which the IC50 on BRD4-BD1 and at BRD4-BD2 was at most 100 nM throughout.

As for `CCCNc1cc2c(cc(C)n2Cc2ccccc2)n2c(C)nnc12` [Example 262, 6-Benzyl-N-propyl-1,7-dimethyl-6H-pyrrolo[2,3-e][1,2,4]triazolo[4,3-a]pyridin-4-amine], the IC50 at BRD4-BD1 and on BRD4-BD2 was at most 100 nM throughout.

As for `Cc1cc2c(cc(NC(C)C)c3nnc(C)n32)n1Cc1ccccc1` [Example 263, 6-Benzyl-N-isopropyl-1,7-dimethyl-6H-pyrrolo[2,3-e][1,2,4]triazolo[4,3-a]pyridin-4-amine], the IC50 at BRD4-BD1 and at BRD4-BD2 was at most 100 nM in each case.

For the compound `COc1cc2c(cc(C)n2Cc2ccccc2)n2c(C)nnc12` [Example 264, 6-Benzyl-4-methoxy-1,7-dimethyl-6H-pyrrolo[2,3-e][1,2,4]triazolo[4,3-a]pyridine], the IC50 on BRD4-BD1 and on BRD4-BD2 was 100 to 1000 nM throughout.

Consider `CC(=O)Nc1cc2c(cc(C)n2Cc2ccccc2)n2c(C)nnc12` [Example 266, N-(6-Benzyl-1,7-dimethyl-6H-pyrrolo[2,3-e][1,2,4]triazolo[4,3-a]pyridin-4-yl)acetamide], for which the IC50 on BRD4-BD1 and at BRD4-BD2 was at most 100 nM throughout.
